Assays:
[1] = test system: NCI-H2122 cells; assay: NCI-H2122 CTG proliferation assay (120 h) (NSCLC, G12C); assay type: cell-based; conditions: Homo sapiens
Outline: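 NCI-H2122 cells (KRAS G12C NSCLC), 200 per well in RPMI with 10% FCS, were dosed with compound on day 1 and incubated 120 h at 37 °C. Viability was read by CellTiter-Glo luminescence as percent of DMSO control, and IC50 was fitted with a four-parameter model.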

[2] = molecular target: KRAS (WT)::SOS1 (Homo sapiens (Human), UniProt P01116, C118S); assay: KRAS::SOS1 AlphaScreen binding assay, KRAS WT
Source text: This assay can be used to examine the potency with which compounds according to the invention binding to (mutated) KRAS inhibit the protein-protein interaction between SOS1 and (mutated) KRAS e.g., KRAS WT, KRAS G12C, KRAS G12D, KRAS G12V, KRAS G13D. […] Low IC50 values in this assay setting are indicative of strong inhibition of protein-protein interaction between SOS1 and KRAS:
These assays measure the inhibitory effect of compounds on KRAS mutant protein-protein interactions using the Alpha Screen technology by Perkin Elmer.
The following (mutant) enzyme forms of KRAS and interacting proteins are used in these assays at the given concentrations: • KRAS (G12D) 1-169, N-terminal 6His-tag, C-terminal avi-tag (Xtal BioStructures, Inc.); final assay concentration 10 nM and SOS1 564-1049, N-terminal 229 GST-tag, TEV cleavage site (Viva Biotech Ltd); final assay concentration 5 nM; • KRAS (G12C) 1-169, N-terminal 6His-tag for purification, cleaved off, C-terminal avi-tag, biotinylated, mutations: C51S, C80L, C118S (in house); final assay concentration 7.5 nM and SOS1 564-1049, N-terminal 229 GST-tag, TEV cleavage site (Viva Biotech Ltd); final assay concentration 5 nM; • KRAS (G12V) 1-169, N-terminal 6His-tag for purification, cleaved off, C-terminal avi-tag, biotinylated, TEV cleavage site, mutation: C118S, GDP loaded (in house); final assay concentration 10 nM and SOS1 564-1049, N-terminal 229 GST-tag, TEV cleavage site (Viva Biotech Ltd); final assay concentration 10 nM; • KRAS (G13D) 1-169, N-terminal 6His-tag for purification, cleaved off, C-terminal avi-tag, biotinylated, TEV cleavage site, mutation: C118S, GDP loaded (in house); final assay concentration 10 nM and SOS1 564-1049, N-terminal 229 GST-tag, TEV cleavage site (Viva Biotech Ltd); final assay concentration 10 nM; • KRAS (WT) 1-169, N-terminal 6His-tag for purification, cleaved off, C-terminal avi-tag, biotinylated, TEV cleavage site, mutation: C118S, GDP loaded (in house); final assay concentration 10 nM and SOS1 564-1049, N-terminal 229 GST-tag, TEV cleavage site (Viva Biotech Ltd); final assay concentration 10 nM.
Test compounds dissolved in DMSO are dispensed onto assay plates (Proxiplate 384 PLUS, white, PerkinElmer; 6008289) using an Access Labcyte Workstation with the Labcyte Echo 55×. For the chosen highest assay concentration of 100 μM, 150 nL of compound solution are transferred from a 10 mM DMSO compound stock solution. A series of eleven fivefold dilutions per compound are transferred to the assay plate, compound dilutions are tested in duplicates. DMSO are added as backfill to a total volume of 150 nL.
The assays run on a fully automated robotic system in a darkened room below 100 Lux. To 150 nl of compound dilution 10 μl of a mix including KRAS mutant protein, SOS1 (final assay concentrations see above) and GDP nucleotide (Sigma G7127; final assay concentration 10 μM) in assay buffer (1×PBS, 0.1% BSA, 0.05% Tween 20) are added into columns 1-24.
After 30 minutes incubation time 5 μl of Alpha Screen bead mix in assay buffer are added into columns 1-23. Bead mix consists of AlphaLISA Glutathione Acceptor Beads (PerkinElmer, Cat No AL109) and AlphaScreen Streptavidin Donor Beads (PerkinElmer Cat No 6760002) in assay buffer at a final assay concentration of 10 μg/ml each.
Plates are kept at room temperature in a darkened incubator. After an additional 60 minutes incubation time the signal is measured in a PerkinElmer Envision HTS Multilabel Reader using the AlphaScreen specs from PerkinElmer.
Each plate contains up to 16 wells of a negative control depending on the dilution procedure (platewise or serial) (DMSO instead of test compound; with KRAS mutant::SOS1 GDP mix and bead mix; column 23) and 16 wells of a positive control (DMSO instead of test compound; with KRAS mutant::SOS1 GDP mix w/o bead mix; column 24).
As internal control known inhibitors of KRAS mutant::SOS1 interaction can be measured on each compound plate. […]

Sequence of KRAS (WT)::SOS1 (P01116 other isoform, or with tags, fused parts or gaps C118S): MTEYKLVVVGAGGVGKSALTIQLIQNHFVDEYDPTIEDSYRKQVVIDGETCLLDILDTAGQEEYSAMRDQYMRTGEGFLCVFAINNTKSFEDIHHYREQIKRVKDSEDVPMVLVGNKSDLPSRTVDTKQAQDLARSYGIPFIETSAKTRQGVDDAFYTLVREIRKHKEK

IC50 [1] [µM]	IC50 [2] [µM]	Structure (SMILES)
–	0.004	C[C@H](Oc1cc(-n2cc3c(n2)CN(C)C3)nc(-c2noc3c2CCC[C@@]32CCCc3sc(N)c(C#N)c32)n1)[C@@H]1CCCN1C [II-174]
4.58	0.008	C[C@H](Oc1cc(C2=CCNCC2)nc(-c2noc3c2CCC[C@@]32CCCc3sc(N)c(C#N)c32)n1)[C@@H]1CCCN1C [II-164]
–	0.005	C[C@H](Oc1nc(-c2noc3c2CCC[C@@]32CCCc3sc(N)c(C#N)c32)nc(N2C[C@H](C)NC3(CC3)C2)c1F)[C@@H]1C[C@@H](F)CN1C [II-157]
1.46	–	C[C@H](Oc1cc(N2C[C@H](C)N(C)[C@@H](C)C2)nc(-c2noc3c2CCC[C@@]32CCCc3sc(N)c(C#N)c32)n1)[C@@H]1CCCN1C [II-173]
2.51	0.003	C[C@H](Oc1cc(N2CCNC3(COC3)C2)nc(-c2noc3c2CCC[C@@]32CCCc3sc(N)c(C#N)c32)n1)[C@@H]1C[C@@H](F)CN1C [II-150]
0.929	0.004	C[C@H](Oc1nc(-c2noc3c2CCC[C@@]32CCCc3sc(N)c(C#N)c32)nc(N2CCNC3(CC3)C2)c1F)[C@@H]1C[C@@H](F)CN1C [II-155]
0.948	–	CC(=O)N1CCN(c2cc(O[C@@H](C)[C@@H]3CCCN3C)nc(-c3noc4c3CCC[C@@]43CCCc4sc(N)c(C#N)c43)n2)CC12CC2 [II-178]
0.942	–	CC(C)N1CCCN(c2cc(-c3ccn(C)n3)nc(-c3noc4c3CCC[C@@]43CCCc4sc(N)c(C#N)c43)n2)[C@@H](C)C1 [II-170]
1.77	0.003	C[C@H](Oc1cc(-n2cc3c(n2)CNC3)nc(-c2noc3c2CCC[C@@]32CCCc3sc(N)c(C#N)c32)n1)[C@@H]1CCCN1C [II-168]
2.28	–	CC(C)N1CCCN(c2cc(-n3ccnc3)nc(-c3noc4c3CCC[C@@]43CCCc4sc(N)c(C#N)c43)n2)[C@@H](C)C1 [II-169]
2.55	0.012	C[C@H](Oc1cc(N2CCN(C)C3(CC3)C2)nc(-c2noc3c2CCC[C@@]32CCCc3sc(N)c(C#N)c32)n1)[C@@H]1C[C@@H](F)CN1C [II-149]
3.69	–	C[C@H](Oc1cc(-c2ccn(C)n2)nc(-c2noc3c2CCC[C@@]32CCCc3sc(N)c(C#N)c32)n1)[C@@H]1C[C@H](F)CN1C [II-144]
3.58	0.008	C[C@H](Oc1cc(N2CCN(C)C3(CCOC3)C2)nc(-c2noc3c2CCC[C@@]32CCCc3sc(N)c(C#N)c32)n1)[C@@H]1C[C@@H](F)CN1C (some centres unmarked) [II-151]
1.25	–	CC(C)[C@@H]1CN(c2cc(O[C@@H](C)[C@@H]3CCCN3C)nc(-c3noc4c3CCC[C@@]43CCCc4sc(N)c(C#N)c43)n2)CCN1 [II-166]
9.79	–	C[C@H](Oc1cc(N2C[C@@H]3[C@@H](N)[C@@H]3C2)nc(-c2noc3c2CCC[C@@]32CCCc3sc(N)c(C#N)c32)n1)[C@@H]1CCCN1C [II-167]
4.5	–	C[C@H](Oc1cc([C@H]2CCNC2)nc(-c2noc3c2CCC[C@@]32CCCc3sc(N)c(C#N)c32)n1)[C@@H]1CCCN1C [II-163]
–	0.014	CO[C@@H]1C[C@@H]([C@H](C)Oc2cc(N3CCN(C)C4(CC4)C3)nc(-c3noc4c3CCC[C@@]43CCCc4sc(N)c(C#N)c43)n2)N(C)C1 [II-152]
3.32	0.008	C[C@H](Oc1cc(N2CCN[C@@H](C)C2)nc(-c2noc3c2CCC[C@@]32CCCc3sc(N)c(C#N)c32)n1)[C@@H]1CCCN1C [II-162]
10.5	–	C[C@H]1CNCCCN1c1cc(-n2ccnc2)nc(-c2noc3c2CCC[C@@]32CCCc3sc(N)c(C#N)c32)n1 [II-142]
–	0.004	C[C@@H]1CN(c2nc(-c3noc4c3CCC[C@@]43CCCc4sc(N)c(C#N)c43)nc(O[C@@H](C)[C@@H]3C[C@@H](F)CN3C)c2F)CC2(CC2)N1 [II-158]
–	0.006	C[C@H](Oc1nc(-c2noc3c2CCC[C@@]32CCCc3sc(N)c(C#N)c32)nc(N2CCNC3(CC3)C2)c1Cl)[C@@H]1C[C@@H](F)CN1C [II-156]
–	0.031	C[C@H](Oc1nc(-c2noc3c2CCC[C@@]32CCCc3sc(N)c(C#N)c32)nc(N2CCN(C)C3(CC3)C2)c1Cl)[C@@H]1C[C@@H](F)CN1C [II-176]
4.85	–	C[C@@H]1CN(c2cc(O[C@@H](C)[C@@H]3CCCN3C)nc(-c3noc4c3CCC[C@@]43CCCc4sc(N)c(C#N)c43)n2)CCN1 [II-161]

Further lines, the molecule ahead of its results:

Structure (SMILES)	IC50 [1] [µM]	IC50 [2] [µM]
C[C@H](Oc1cc(-c2ccn(Cc3ncco3)n2)nc(-c2noc3c2CCC[C@@]32CCCc3sc(N)c(C#N)c32)n1)[C@@H]1CCCN1C [II-128]	0.361	–
C[C@H]1CNCCCN1c1cc(-c2ccn(C)n2)nc(-c2noc3c2CCC[C@@]32CCCc3sc(N)c(C#N)c32)n1 [II-140]	8.24	–
C[C@H](Oc1cc(N2CC3COCC(C2)N3)nc(-c2noc3c2CCC[C@@]32CCCc3sc(N)c(C#N)c32)n1)[C@@H]1CCCN1C [II-160]	3.19	–
C[C@H](Oc1cc(N2Cc3cnn(C)c3C2)nc(-c2onc3c2CCC[C@@]32CCCc3sc(N)c(C#N)c32)n1)[C@@H]1CCCN1C [I-19]	2.71	–
C[C@H](Oc1cc(-n2nccc2-c2ccncc2)nc(-c2noc3c2CCC[C@@]32CCCc3sc(N)c(C#N)c32)n1)[C@@H]1CCCN1C [II-131]	0.672	–
C[C@H](Oc1cc(-n2cc3c(n2)CCN(C)C3)nc(-c2noc3c2CCC[C@@]32CCCc3sc(N)c(C#N)c32)n1)[C@@H]1CCCN1C [II-141]	2.83	0.003
C[C@H](Oc1cc(-c2ccn(C[C@H]3CCOC3)n2)nc(-c2noc3c2CCC[C@@]32CCCc3sc(N)c(C#N)c32)n1)[C@@H]1CCCN1C [II-129]	0.198	–
C[C@H](Oc1cc(N2CCNC[C@]23CCOC3)nc(-c2onc3c2CCC[C@@]32CCCc3sc(N)c(C#N)c32)n1)[C@@H]1CCCN1C [I-12]	3.29	–
C[C@H](Oc1cc(-n2cncc3ccnc2-3)nc(-c2onc3c2CCC[C@@]32CCCc3sc(N)c(C#N)c32)n1)[C@@H]1CCCN1C [I-14]	2.87	–
C[C@H](Oc1cc(-n2cncn2)nc(-c2onc3c2CCC[C@@]32CCCc3sc(N)c(C#N)c32)n1)[C@@H]1CCCN1C [I-18]	1.76	–
CO[C@@H]1C[C@@H]([C@H](C)Oc2cc(-c3cnn(C)n3)nc(-c3onc4c3CCC[C@@]43CCCc4sc(N)c(C#N)c43)n2)N(C)C1 [I-17]	4.23	–
C[C@H](Oc1cc(-c2ccn([C@H]3CCOC3)n2)nc(-c2noc3c2CCC[C@@]32CCCc3sc(N)c(C#N)c32)n1)[C@@H]1CCCN1C [II-127]	0.189	–
C[C@H](Oc1cc(-n2cc(C(=O)N(C)C)nn2)nc(-c2noc3c2CCC[C@@]32CCCc3sc(N)c(C#N)c32)n1)[C@@H]1CCCN1C [II-132]	0.188	–
C[C@H](Oc1cc(N2CCNC[C@@]23CCOC3)nc(-c2onc3c2CCC[C@@]32CCCc3sc(N)c(C#N)c32)n1)[C@@H]1CCCN1C [I-13]	6.47	–
C[C@H](O)Cn1ncc(-c2cc(O[C@@H](C)[C@@H]3CCCN3C)nc(-c3noc4c3CCC[C@@]43CCCc4sc(N)c(C#N)c43)n2)n1 [II-134]	4.12	–
C[C@H](Oc1cc(-n2cnc(C(=O)N(C)C)c2)nc(-c2noc3c2CCC[C@@]32CCCc3sc(N)c(C#N)c32)n1)[C@@H]1CCCN1C [II-126]	2.69	–

— patent US20240174690A1, “ANNULATED 2-AMINO-3-CYANO THIOPHENES AND DERIVATIVES FOR THE TREATMENT OF CANCER” (BOEHRINGER INGELHEIM INTERNATIONAL GMBH, priority 2021, published 2024)
